Test results from article PMC5962729 (Frontiers in Pharmacology, 2018).
Like-named read-outs stand apart in the source and are kept apart here.

Legend:
[1] = Identification of components and metabolites of YCHD in rat plasma, bile, urine and feces (UHPLC/Q-TOF-MS); format: in vivo; settings: rats, oral YCHD 12 g/kg, urine, feces
Protocol: After centrifuging at 4000 rpm for 10 min, supernatant plasma was harvested into heparinized tubes and then stored at -20°C for preservation. The rats in the second group (n = 6) were kept individually in metabolic cages to collect urine and feces. […] Subsequently, the rats were orally administered a single dose of YCHD (12 g/kg of body weight). […] For the third group of rats (n = 6), bile duct intubation was implemented, and blank bile samples were collected before administration. After the administration of YCHD at 12 g/kg of body weight, the drug-containing bile samples were collected.
Plasma, bile, and urine samples (200 μL each) were separately precipitated with six times of methanol–acetonitrile mixed solution (v/v, 1:1; containing 1% formic acid). After being vortex mixed for 5 min and centrifuged at 15,000 rpm for 5 min at 4°C, the supernatant was separated into another clean tube and dried under a gentle stream of nitrogen at 45°C. Subsequently, the residue was reconstituted in 100 μL of 50% methanol–water (v/v) and then vortex mixed for 10 min. After another round of centrifugation at 15,000 rpm for 5 min at 4°C, 5 μL of the supernatant was analyzed by UHPLC-MS/MS. A 0.5 g sample of naturally dried feces was supplemented with 2 mL of 80% methanol–water (v/v) and then ultrasonically extracted for 30 min at 4°C. After being centrifuged at 15,000 rpm for 10 min, the supernatant was dried under a gentle stream of nitrogen at 45°C. Finally, the residue was reconstituted in 1 mL of 50% methanol–water (v/v) and then vortex mixed for 10 min. After another round of centrifugation at 15,000 rpm for 5 min at 4°C, 5 μL of the supernatant sample was injected into the UHPLC-MS/MS system for analysis.
Separations were conducted on an Agilent SB-C18 column (2.1 mm × 50 mm, 1.8 μm) of a UHPLC/Q-TOF-MS system (Waters, Corp., Milford, MA, United States) maintained at 40°C.
A Synapt G2 quadrupole time-of-flight (Q/TOF) MS/MS system (Waters, Corp., Manchester, United Kingdom) equipped with an electrospray ionization (ESI) interface was operated in negative ionization mode and controlled by MassLynx software (Version 4.1). The optimized conditions for maximum detection of metabolites were as follows: the capillary voltage was set at 3.0 kV, extraction cone voltage was set at 10 and 15 V, source temperature was maintained at 120°C, and desolvation temperature was maintained at 450°C. […] An MS^E approach using a dynamic ramp of collision energy was also applied at two (low and high collision energies) scan functions. The following parameters were set: Function 1 (low energy)—mass scan range, 100–1000; scan time, 0.25 s; interscan delay, 0.05 s; collision energy, 4 V. Function 2 (high energy)—mass scan range, 100–1000; scan time, 0.2 s; interscan delay, 0.05 s; collision energy ramp, 10–30 V. Data were acquired using Masslynx^TM (Version 4.1. Waters, Crop., Milford, MA, United States), and Metabolynx^TM (Waters, Crop., Milford, MA, United States) was applied for post-acquisition data processing.

[2] = Pharmacokinetic study of YCHD components and phase II metabolites in ANIT-induced cholestatic rats (UHPLC-MS/MS, sulfatase enzymolysis); format: in vivo, rat; settings: for AUC(0-∞) / Ka: Model group (ANIT 50 mg/kg cholestatic rats); for AUC(0-∞) / Ka / AUC(0-∞) reduced by, cholestatic model rats compared with normal rats / Cmax reduced by, cholestatic model rats compared with normal rats / AUC(0-∞) increased by, cholestatic model rats compared with normal rats / Cmax increased by, cholestatic model rats compared with normal rats: single oral YCHD 12 g/kg; for Cmax / Tmax / CL/F / MRT inf / Vd/F / half-life: rat, po, 12 g/kg; for CL/F: read-out: CLz/F; for MRT inf: read-out: MRT (0-∞) (converted); for Vd/F: read-out: Vz/F; for half-life: read-out: t1/2z; for in vivo absorption and excretion processes in cholestatic rats (comparison of Ka and Ke): versus normal rats, oral YCHD 12 g/kg
Protocol: To explore the pharmacokinetic properties of YCHD following intragastric administration in rats, a rapid and sensitive method involving the use of UHPLC-MS/MS (Agilent 6460 series, Agilent Technologies, Santa Clara, CA, United States) was developed and validated for the simultaneous quantification of 10 active components of rat plasma. The quantification was conducted in ESI negative ionization mode, and the mass spectrometry conditions were as follows: capillary voltage, 3500 V; gas flow, 12 L/min; nebulizer, 40 psi; gas temperature, 350°C; and delta EMV (-), 400.
To each 50 μL plasma sample, 10 μL of internal standard solution (paeoniflorin, 1000 ng/mL) and 300 μL of a mixed solution of methanol and acetonitrile (v/v, 1:1; containing 1% formic acid) were added. Subsequently, the solution was vortex mixed for 5 min. After centrifugation at 15,000 rpm for 5 min, the supernatant was transferred completely into a tube, before being evaporated under N2 at 40°C. The residue was then dissolved in 50 μL of 50% methanol–water (v/v, 1:1) through vortexing for 5 min, after centrifugation at 15,000 rpm for 10 min. Finally, 5 μL of the supernatant sample was injected into the UHPLC-MS/MS system for analysis.
The rats were randomly divided into two groups (n = 5 for each group). […] The blood samples were centrifuged at 4000 rpm for 10 min, and the supernatant plasma was harvested. Plasma samples (50 μL) were immediately processed as outlined in Section “Chromatographic and Mass Spectrometry Conditions.”
Additional plasma samples (50 μL) were enzymatically hydrolyzed with 50 μL of enzyme solution (65.86 mg of sulfatase, dissolved in 2 mL of sodium acetate buffer, pH 5.0) for phase II metabolite quantification, in accordance with our previous study ([Ding et al., 2012]). After being vortex mixed for 5 min, the mixture was incubated at 37°C for 30 min and then returned to room temperature. Subsequently, the samples were processed as outlined in Section “Chromatographic and Mass Spectrometry Conditions” for UHPLC-MS/MS analysis. During routine analysis, each analytical run included six blank plasma samples, a set of calibration samples, a set of QC samples, and unknowns.
All data are presented as mean ± SD. A one-way analysis of variance was used to compare data between two groups using SPSS (Version 21.0). The differences were considered to be statistically significant when p < 0.05 and highly significant when p < 0.01 or p < 0.001. Pharmacokinetic data analysis was performed using DAS 2.1.1 software (Mathematical Pharmacology Professional Committee of China, Shanghai, China).
The specific contents of the phase II metabolites of these components were detected indirectly by evaluating the content difference of their prototypes in samples after enzymolysis and before enzymolysis
CG = Ca −[MG × (CGG/MGG + CGe/MGe)]
Ca, CGG, and CGe represent the concentration of genipin, genipin-1-β-D-gentiobioside, and geniposide after enzymolysis of sulfatase, respectively. MG, MGG-, and MGe represent the mass of genipin, genipin-1-β-D-gentiobioside, and geniposide, respectively.

Cmax ([2]; plasma)	Tmax ([2]; plasma)	CL/F ([2]; plasma)	MRT inf ([2]; plasma)	Vd/F ([2]; plasma)	half-life ([2]; plasma)	AUC(0-∞) reduced by, cholestatic model rats compared with normal rats [2]	Cmax reduced by, cholestatic model rats compared with normal rats [2]	Structure (SMILES)	Source (biological samples in which the compound was identified) [1]	AUC(0-∞) ([2]; plasma)	Ka ([2]; plasma)	in vivo absorption and excretion processes in cholestatic rats (comparison of Ka and Ke) [2]	Vd/F ([2]; in vivo)	half-life ([2]; in vivo)	AUC(0-∞) increased by, cholestatic model rats compared with normal rats [2]	Cmax increased by, cholestatic model rats compared with normal rats [2]	Vd/F ([2]; Sprague Dawley, plasma)	half-life ([2]; Sprague Dawley, plasma)	further results
676 ± 85 ng/mL	15 min	215 ± 37 mL/min/kg	18.6 h	429 ± 287 L/kg	1560 ± 1260 min	41.2%	57.2%	CC(=O)c1ccc(O)cc1 [4-hydroxyacetophenone, 4-Hydroxyacetophenone]	Plasma, bile, urine, feces	113028.5 ± 56412.0 µg·min/L	202.7 ± 235.9 min⁻¹	inhibited							
								COC(=O)C1=CO[C@@H](O[C@@H]2O[C@H](CO)[C@@H](O)[C@H](O)[C@H]2O)[C@@H]2C(CO)=CC[C@H]12 [Geniposide]	Plasma, bile, urine, feces	956445.5 ± 420665.9 µg·min/L	1543.0 ± 592.8 min⁻¹	significantly enhanced	22.4 ± 7.5 L/kg	339 ± 28 min	148.9%	10.2%			Cmax ([2]; in vivo): 578 ± 59.6 ng/mL; Tmax ([2]; in vivo): 27 min; CL/F ([2]; in vivo): 45 ± 12 mL/min/kg; MRT inf ([2]; in vivo): 7.5 h
422 ± 87.5 ng/mL	15 min	221 ± 84 mL/min/kg	2.83 h	41.4 ± 20.8 L/kg	131 ± 48.7 min	80.9%	86.1%	O=C(O)c1cc(O)c2c(c1)C(=O)c1cccc(O)c1C2=O [Rhein]	Plasma, bile, urine, feces	172453.1 ± 108249.8 µg·min/L	478.1 ± 200.1 min⁻¹	inhibited							
63.9 ± 10.1 ng/mL	15 min	1260 ± 165 mL/min/kg	3.14 h			17.7%	39.5%	COC(=O)C1=CO[C@@H](O[C@@H]2O[C@H](CO[C@@H]3O[C@H](CO)[C@@H](O)[C@H](O)[C@H]3O)[C@@H](O)[C@H](O)[C@H]2O)[C@@H]2C(CO)=CC[C@H]12 [genipin-1-β-D-gentiobiodide, Genipin-1-β-D-gentiobiodide]	Bile, urine	31749.4 ± 15408.0 µg·min/L	106.8 ± 25.5 min⁻¹						280 ± 254 L/kg	168 ± 181 min	

Structure (SMILES)	Cmax ([2]; plasma)	Tmax ([2]; plasma)	CL/F ([2]; plasma)	MRT inf ([2]; plasma)	Vd/F ([2]; plasma)	half-life ([2]; plasma)	AUC(0-∞) reduced by, cholestatic model rats compared with normal rats [2]	Cmax reduced by, cholestatic model rats compared with normal rats [2]	Source (biological samples in which the compound was identified) [1]	AUC(0-∞) ([2]; plasma)	Ka ([2]; plasma)	in vivo absorption and excretion processes in cholestatic rats (comparison of Ka and Ke) [2]	Vd/F ([2]; in vivo)	half-life ([2]; in vivo)	AUC(0-∞) increased by, cholestatic model rats compared with normal rats [2]	Cmax increased by, cholestatic model rats compared with normal rats [2]	Vd/F ([2]; Sprague Dawley, plasma)	half-life ([2]; Sprague Dawley, plasma)	further results
O=C(O)C1=CO[C@@H](O[C@@H]2O[C@H](CO)[C@@H](O)[C@H](O)[C@H]2O)[C@@H]2C(CO)=CC[C@H]12 [Geniposidic acid]	1690 ± 251 ng/mL	240 min		9.5 h					Plasma, urine, feces	3007701.6 ± 1408367.9 µg·min/L	41280.6 ± 37036.2 min⁻¹	significantly enhanced			85.5%	153.7%	4990 ± 1180 L/kg	314 ± 86.2 min	
COC(=O)C1=COC(OC2OC(CO)C(O)C(O)C2O)C2C(CO)=CC(O)C12 (stereo not drawn) [Scandoside methyl ester]								26.3%	Plasma, bile, urine, feces	300942.4 ± 177466.0 µg·min/L	22.6 ± 38.8 min⁻¹	inhibited	95.6 ± 26.6 L/kg	688 ± 197 min					Cmax ([2]; Sprague Dawley, in vivo): 93.8 ± 13.7 ng/mL; Tmax ([2]; Sprague Dawley, in vivo): 264 min; CL/F ([2]; Sprague Dawley, in vivo): 98 ± 16 mL/min/kg; MRT inf ([2]; Sprague Dawley, in vivo): 16.7 h
